These results are taken from patent US20160138077A1, “MONITORING AND ASSESSING DEACETYLASE ENZYME ACTIVITY” (THE GENERAL HOSPITAL CORPORATION, priority 2013, published 2016).

The subject of the experiment is HeLa cells. The experiment in a line: Determination of HDAC activity in HeLa cells by LC-MS. Type of experiment: cell-based. To be noted: live HeLa cells, 5 μM, over 24 h. The procedure:
HeLa cell culture and treatment with HP-1 and HP-2. HeLa cells (ATCC) were grown as a monolayer in Eagles Minimum Essential Medium (EMEM, GIBCO, BRL, Gaithersburg, Md.) with 10% Fetal Bovine Serum (FBS, GIBCO, BRL, Gaithersburg, Md.) and 1% penicillin/streptomycin ([…]). All cell culture dishes were maintained in a humidified atmosphere with 5% CO2 at 37° C.
Determination of HDAC activity in HeLa cells by LC-MS. HDAC activity in HeLa cells was analyzed by performing an LCMS assay. Solutions of HP-1 and HP-2 (200 mM each) were prepared in DMSO and diluted in HDAC buffer to a final concentration of 100 μM. […] Cells were scraped off of the flask, lysed in milipore water (90 μL) using a mechanical homogenizer, centrifuged (at 14,000×g for 2 min) and 20 μL aliquot of supernatant from each sample was analyzed by LCMS. […] The peak area for each detected compound was measured to determine the % conversion. For HP-1, the corresponding (M+H)^+ ion was detected. […] The peak area for each detected compound was measured to determine the % conversion of each probe. […]
Determination of HDAC activity in HeLa cells by LC-MS. […] Cells were scraped off of the flask, lysed in Millipore water using a mechanical homogenizer, and supernatant of the lysed samples were analyzed by LC-MS. […] The peak area for each detected compound was measured to determine the % conversion versus time (full experimental details in Example 1).

Consider `CC(=O)NC=CCCCCNC(=O)CCCCCNc1ccc([N+](=O)[O-])c2nonc12` [HP-1], for which, where the note is “absence of SAHA, LCMS of supernatants and lysates”, the HP-1 cleaved is reported as 80%. For the same molecule, the “Cleavage of HP-1” value (addition of SAHA (10 μM)) is listed as 20%.
